Measurements taken from patent US7863465B2, “Antifungal agents” (Merck Sharp & Dohme Corp., priority 2006, dated 2011).

Molecular target: T1, glucan synthase (GS) prepared from Candida albicans MY1055 (Candida albicans, UniProt O13428)
T1 construct: Extraction of GS activity from membranes was performed at a protein concentration of 5 mg/mL in extraction buffer; endogenous in cells; host or cells: Candida albicans MY1055 (membranes, detergent extract, product entrapment)
Assay: Glucan synthase inhibition (polymerization assay, 96-well, 3H-UDPG incorporation)
Type: biochemical
Details: glucan synthase from C. albicans MY1055
Method: The in vitro evaluation of glucan synthase inhibitory activity of compounds was measured in a polymerization assay in 96-well format. Each well contained 100 μL of ^3H-UDPG at 0.5 mM (6000 to 8000 dpm/nmol), 50 mM HEPES pH 7.5 (Sigma), 10% w/v glycerol (Sigma), 1.5 mg/mL bovine serum albumin (Sigma A 9647. Lot 44H0190), 25 mM KF (Fisher), 1 mM EDTA (Gibco Ultrapure), 25 μM GTP-γ-S, enzyme sufficient to give 3 to 6 nmoles incorporation during the 60 min incubation at 22° C., and test compound added from wells in 3-fold serial dilutions in 100% DMSO (1 μL/well). The reaction was stopped by the addition of 100 μL of 20% trichloroacetic acid. Plates were chilled for a minimum of 10 min, and precipitated glucan collected by filtration on GF/C plates (Packard Unifilter®-96), washed with 5 cycles of water (about 1 mL/well each cycle) using a Packard Filtermate Harvester. 40 μL/well scintillation fluid (Packard Ultima Gold TM-XR) was added and the sealed plates counted in a Wallac Beta counter in top-counting mode at an efficiency of approximately 40%.
Stock solutions were stored at 10 mg/mL in DMSO at −20° C. For each new enzyme preparation, the initial titration performed started at 1 mg/mL, which was prepared by making a 10-fold dilution in DMSO (5 μL to 50 μL). 40 μL of this stock was placed in column 12 of a round-bottomed 96-well microtiter plate. 40 μL DMSO was added to columns 1 to 11 in the same row and ten 3-fold serial dilutions performed, by transferring 20 μL from column 12 to column 11 etc., with 4 mixings before each transfer. No test compound was transferred to from column 2 to column 1. Duplicate aliquots of 1 μL of all 12 dilutions were then transferred to the side walls of a 96-well Bioblock 1.1 mL plate (Fisherbrand) to create two rows.
The results were tabulated and a standard plate background was subtracted and the net count transpose-pasted into a Prism file, with final compound concentrations used in ng/mL. Graphs were created in Prism software, using the average of two determinations, and using Prism's curve fitting program (sigmoidal dose response non-linear regression).
Routine analysis was performed with glucan synthase (GS) prepared from Candida albicans MY1055 by the following procedure: MY1055 was grown in 10 liters YPD medium (10 g yeast extract, 20 g tryptone, 20 g glucose per liter) with vigorous shaking at 30° C., to early stationary phase. Cells were harvested by centrifugation, the pellet was washed and frozen at −70° C. until breakage. Thawed pellets were shaken with an equal volume of breakage buffer (50 mM HEPES pH 7.4, 10% glycerol, 1 mM EDTA, 1 mM PMSF, 1 mM DTT) and 4 times their weight of 0.5 mm acid washed glass beads for 2 hours at 4° C. Extent of breakage was assessed visually at 40× magnification. For C. parapsilosis strains, shaking was extended to 3 hours to maximize breakage. After low speed centrifugation to remove cell debris, the supernatant was centrifuged at 100,000×g for 60 min. to separate membranes plus ribosomes from cytoplasmic components. Membranes were further washed two additional times with breakage buffer using the same centrifugation conditions and finally suspended in breakage buffer at 25 to 30 mg/mL protein (Biorad) for storage at −70° C. Extraction of GS activity from membranes was performed at a protein concentration of 5 mg/mL in extraction buffer (50 mM NaPO4 pH 7.5, 0.1 M KCl, 0.1M Na citrate, 20% glycerol, 5 μM GTP-γ-S, 1 mM DTT, 1 mM PMSF, 3 μg/mL pepstatin) plus 0.25% W1 by gentle mixing at 4° C. for 60 min, followed by centrifugation at 100,000×g for 60 min. After centrifugation, clear supernatant was removed from a pellet consisting of a hard layer usually with small amounts of gelatinous unextracted membranes above it. […]

T1 sequence (O13428 1-1897): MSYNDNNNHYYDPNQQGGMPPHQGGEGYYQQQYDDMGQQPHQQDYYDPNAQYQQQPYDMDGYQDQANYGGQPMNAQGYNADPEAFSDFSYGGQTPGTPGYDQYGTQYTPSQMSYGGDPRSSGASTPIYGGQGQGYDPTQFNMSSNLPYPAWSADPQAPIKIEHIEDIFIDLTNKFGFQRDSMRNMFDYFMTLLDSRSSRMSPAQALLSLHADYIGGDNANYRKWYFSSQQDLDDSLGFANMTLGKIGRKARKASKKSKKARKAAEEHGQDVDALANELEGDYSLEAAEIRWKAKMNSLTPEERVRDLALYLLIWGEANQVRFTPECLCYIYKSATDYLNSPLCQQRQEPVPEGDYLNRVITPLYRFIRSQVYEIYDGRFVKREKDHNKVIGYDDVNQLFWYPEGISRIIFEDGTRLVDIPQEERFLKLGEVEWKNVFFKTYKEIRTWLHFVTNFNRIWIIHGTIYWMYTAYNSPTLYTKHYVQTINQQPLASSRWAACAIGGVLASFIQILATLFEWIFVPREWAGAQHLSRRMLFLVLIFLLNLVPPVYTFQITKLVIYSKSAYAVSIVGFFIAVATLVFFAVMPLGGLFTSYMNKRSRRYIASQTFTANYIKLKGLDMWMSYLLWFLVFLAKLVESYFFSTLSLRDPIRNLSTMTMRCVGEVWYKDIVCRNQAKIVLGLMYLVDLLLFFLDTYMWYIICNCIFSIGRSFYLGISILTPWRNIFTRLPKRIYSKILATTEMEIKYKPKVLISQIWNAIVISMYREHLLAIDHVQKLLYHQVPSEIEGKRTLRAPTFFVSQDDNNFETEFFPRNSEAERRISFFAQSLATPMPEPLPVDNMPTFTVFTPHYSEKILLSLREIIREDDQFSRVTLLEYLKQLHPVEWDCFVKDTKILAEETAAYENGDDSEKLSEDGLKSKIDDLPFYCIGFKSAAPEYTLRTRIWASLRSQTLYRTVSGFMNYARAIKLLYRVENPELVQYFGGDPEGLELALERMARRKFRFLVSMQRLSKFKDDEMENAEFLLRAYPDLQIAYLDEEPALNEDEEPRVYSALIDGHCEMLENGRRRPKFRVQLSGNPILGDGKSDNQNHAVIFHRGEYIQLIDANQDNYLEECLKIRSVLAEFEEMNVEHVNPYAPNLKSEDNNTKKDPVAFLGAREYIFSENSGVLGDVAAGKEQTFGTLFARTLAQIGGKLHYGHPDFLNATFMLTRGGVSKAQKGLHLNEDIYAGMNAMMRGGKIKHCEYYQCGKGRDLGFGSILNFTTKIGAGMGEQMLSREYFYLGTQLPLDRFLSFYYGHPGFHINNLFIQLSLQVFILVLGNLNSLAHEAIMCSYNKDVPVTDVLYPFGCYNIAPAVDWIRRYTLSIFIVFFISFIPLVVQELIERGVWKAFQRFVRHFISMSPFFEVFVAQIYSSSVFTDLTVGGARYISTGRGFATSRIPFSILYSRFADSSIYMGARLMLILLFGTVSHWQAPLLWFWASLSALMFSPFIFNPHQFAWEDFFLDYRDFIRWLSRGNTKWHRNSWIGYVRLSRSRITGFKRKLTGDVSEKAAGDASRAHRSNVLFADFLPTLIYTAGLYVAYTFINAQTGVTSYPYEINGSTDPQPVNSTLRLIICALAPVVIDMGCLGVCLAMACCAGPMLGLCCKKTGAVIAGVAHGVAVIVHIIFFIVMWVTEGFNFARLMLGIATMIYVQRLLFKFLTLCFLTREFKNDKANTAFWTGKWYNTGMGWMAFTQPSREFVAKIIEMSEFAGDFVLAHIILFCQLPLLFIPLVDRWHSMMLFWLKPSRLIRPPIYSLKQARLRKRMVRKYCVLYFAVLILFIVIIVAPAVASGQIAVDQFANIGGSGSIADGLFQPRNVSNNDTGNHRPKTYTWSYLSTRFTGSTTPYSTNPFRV
T1 sequence (O42825 whole entry partner): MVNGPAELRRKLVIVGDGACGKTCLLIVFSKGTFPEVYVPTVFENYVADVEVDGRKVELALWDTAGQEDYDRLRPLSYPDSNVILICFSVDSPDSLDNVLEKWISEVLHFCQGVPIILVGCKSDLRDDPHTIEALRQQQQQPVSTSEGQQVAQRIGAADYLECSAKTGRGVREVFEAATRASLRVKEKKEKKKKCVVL

Row | IC50 | SMILES
1 | 81.9 nM | CC(=O)O[C@@H]1C[C@@]23COC[C@](C)([C@@H]2CC[C@H]2C3=CC[C@@]3(C)[C@H](C(=O)O)[C@@](C)([C@H](C)C(C)C)CC[C@]23C)[C@H]1OCCN [Example 1, (1S,2R,3R,4aR,6aS,7R,8R,10aR,10bR,12aR)-3-(acetyloxy)-2-(2-aminoethoxy)-8-[(1R)-1,2-dimethylpropyl]-1,6a,8,10a-tetramethyl-1,3,4,6,6a,7,8,9,10,10a,10b,11,12,12a-tetradecahydro-2H-1,4a-(methanooxymethano)chrysene-7-carboxylic acid]
2 | 39.1 nM | CC(=O)O[C@@H]1C[C@@]23COC[C@](C)(C2CC[C@H]2C3=CC[C@@]3(C)[C@H](C(=O)O)[C@@](C)([C@H](C)C(C)C)CC[C@]23C)[C@H]1OCC(C)N (stereo partly drawn) [Example 2, (1S,2R,3R,4aR,6aS,7R,8R,10aR,10bR,12aR)-3-(Acetyloxy)-2-(2-aminopropoxy)-8-[(1R)-1,2-dimethylpropyl]-1,6a,8,10a-tetramethyl-1,3,4,6,6a,7,8,9,10,10a,10b,11,12,12a-tetradecahydro-2H-1,4a-(methanooxymethano)chrysene-7-carboxylic acid]
3 | 19.5 nM | CC(=O)O[C@@H]1C[C@@]23COC[C@](C)([C@@H]2CC[C@H]2C3=CC[C@@]3(C)[C@H](C(=O)O)[C@@](C)([C@H](C)C(C)C)CC[C@]23C)[C@H]1OCCNC(=N)N [Example 6, (1S,2R,3R,4aR,6aS,7R,8R,10aR,10bR,12aR)-3-(acetyloxy)-2-(2-guanidino-ethoxy)-8-[(1R)-1,2-dimethylpropyl]-1,6a,8,10a-tetramethyl-1,3,4,6,6a,7,8,9,10,10a,10b, 11,12,12a-tetradecahydro-2H-1,4a-(methanooxymethano)chrysene-7-carboxylic acid]
4 | 25.4 nM | CC(=O)O[C@@H]1C[C@@]23COC[C@](C)([C@@H]2CC[C@H]2C3=CC[C@@]3(C)[C@H](C(=O)O)[C@@](C)([C@H](C)C(C)C)CC[C@]23C)[C@H]1OCCNCCCN [Example 8, (1S,2R,3R,4aR,6aS,7R,8R,10aR,10bR,12aR)-3-(acetyloxy)-2-[2-(3-aminopropylamino)-ethoxy]-8-[(1R)-1,2-dimethylpropyl]-1,6a,8,10a-tetramethyl-1,3,4,6,6a,7,8,9,10,10a,10b,11,12,12a-tetradecahydro-2H-1,4a-(methanooxymethano)chrysene-7-carboxylic acid]
5 | 47.6 nM | CC(=O)O[C@@H]1C[C@@]23COC[C@@](C)([C@@H]2CC[C@H]2C3=CC[C@@]3(C)[C@H](C(=O)O)[C@@](C)([C@H](C)C(C)C)CC[C@]23C)[C@H]1OCCCN [Example 35, (1S,2R,3R,4aR,6aS,7R,8R,10aR,10bR,12aR)-3-(acetyloxy)-2-(3-aminopropoxy)-8-[(1R)-1,2-dimethylpropyl]-1,6a,8,10a-tetramethyl-1,3,4,6,6a,7,8,9,10,10a,10b,11,12,12a-tetradecahydro-2H-1,4a-(methanooxymethano)chrysene-7-carboxylic acid]
6 | 616 nM | CC(=O)O[C@@H]1C[C@@]23COC[C@](C)([C@@H]2CC[C@H]2C3=CC[C@@]3(C)[C@H](C(=O)O)[C@@](C)([C@H](C)C(C)C)CC[C@]23C)[C@H]1OCC(O)(CO)CO [Example 44, (1S,2R,3R,4aR,6aS,7R,8R,10aR,10bR,12aR)-3-(acetyloxy)-2-(2,3-dihydroxy-2-hydroxymethylpropoxy)-8-[(1R)-1,2-dimethylpropyl]-1,6a,8,10a-tetramethyl-1,3,4,6,6a,7,8,9,10,10a,10b,11,12,12a-tetradecahydro-2H-1,4a-(methanooxymethano)chrysene-7-carboxylic acid]

More lines, now with the values behind:

Row | SMILES | IC50
7 | CC(=O)O[C@@H]1C[C@@]23COC[C@](C)([C@@H]2CC[C@H]2C3=CC[C@@]3(C)[C@H](C(=O)O)[C@@](C)([C@H](C)C(C)C)CC[C@]23C)[C@H]1OCCNC(=O)C(N)CN (stereo partly drawn) [Example 5, (1S,2R,3R,4aR,6aS,7R,8R,10aR,10bR,12aR)-3-(acetyloxy)-2-[2-(2,3-diaminopropionylamino)-ethoxy]-8-[(1R)-1,2-dimethylpropyl]-1,6a,8,10a-tetramethyl-1,3,4,6,6a,7,8,9,10,10a,10b,11,12,12a-tetradecahydro-2H-1,4a-(methanooxymethano)chrysene-7-carboxylic acid] | 126 nM
8 | CC(=O)O[C@@H]1C[C@@]23COC[C@](C)(C2CC[C@H]2C3=CC[C@@]3(C)[C@H](C(=O)O)[C@@](C)([C@H](C)C(C)C)CC[C@]23C)[C@H]1OCCNC[C@@H](N)CCCCN (stereo partly drawn) [Example 21, (1S,2R,3R,4aR,6aS,7R,8R,10aR,10bR,12aR)-3-(acetyloxy)-2-[2-((S)-2,6-diaminohexylamino)-ethoxy]-8-[(1R)-1,2-dimethylpropyl]-1,6a,8,10a-tetramethyl-1,3,4,6,6a,7,8,9,10,10a,10b,11,12,12a-tetradecahydro-2H-1,4a-(methanooxymethano)chrysene-7-carboxylic acid] | 59.6 nM
9 | CC(=O)O[C@@H]1C[C@@]23COC[C@](C)(C2CC[C@H]2C3=CC[C@@]3(C)[C@H](C(=O)O)[C@@](C)([C@H](C)C(C)C)CC[C@]23C)[C@H]1OCCNC(=N)NC(C)(C)C (stereo partly drawn) [Example 24, (1S,2R,3R,4aR,6aS,7R,8R,10aR,10bR,12aR)-3-(acetyloxy)-2-[2-(N′-tert-butylguanidino)-ethoxy]-8-[(1R)-1,2-dimethylpropyl]-1,6a,8,10a-tetramethyl-1,3,4,6,6a,7,8,9,10,10a,10b,11,12,12a-tetradecahydro-2H-1,4a-(methanooxymethano)chrysene-7-carboxylic acid] | 32.7 nM
10 | CC(=O)O[C@@H]1C[C@@]23COC[C@](C)(C2CC[C@H]2C3=CC[C@@]3(C)[C@H](C(=O)O)[C@@](C)([C@H](C)C(C)C)CC[C@]23C)[C@H]1OCCCCN (stereo partly drawn) [Example 40, (1S,2R,3R,4aR,6aS,7R,8R,10aR,10bR,12aR)-3-(acetyloxy)-2-(4-aminobutoxy)-8-[(1R)-1,2-dimethylpropyl]-1,6a,8,10a-tetramethyl-1,3,4,6,6a,7,8,9,10,10a,10b,11,12,12a-tetradecahydro-2H-1,4a-(methanooxymethano)chrysene-7-carboxylic acid] | 51.5 nM
11 | CC(=O)O[C@@H]1C[C@@]23COC[C@](C)([C@@H]2CC[C@H]2C3=CC(=O)[C@@]3(C)[C@H](C(=O)O)[C@@](C)([C@H](C)C(C)C)CC[C@]23C)[C@H]1OCCN [Example 47, (1S,2R,3R,4aR,6aS,7R,8R,10aR,10bR,12aR)-3-(acetyloxy)-2-(2-aminoethoxy)-8-[(1R)-1,2-dimethylpropyl]-1,6a,8,10a-tetramethyl-6-oxo-1,3,4,6,6a,7,8,9,10,10a,10b,11,12,12a-tetradecahydro-2H-1,4a-(methanooxymethano)chrysene-7-carboxylic acid] | 78.3 nM
12 | CC(=O)O[C@@H]1C[C@@]23COC[C@](C)([C@@H]2CC[C@H]2C3=CC(=O)[C@@]3(C)[C@H](C(=O)O)[C@@](C)([C@H](C)C(C)C)CC[C@]23C)[C@H]1OCCNC(=N)N [Example 48, (1S,2R,3R,4aR,6aS,7R,8R,10aR,10bR,12aR)-3-(acetyloxy)-2-(2-guanidinoethoxy)-8-[(1R)-1,2-dimethylpropyl]-1,6a,8,10a-tetramethyl-6-oxo-1,3,4,6,6a,7,8,9,10,10a,10b,11,12,12a-tetradecahydro-2H-1,4a-(methanooxymethano)chrysene-7-carboxylic acid] | 28.6 nM
